The values that follow come from patent US20080167268A1, “Particulate beta-glucan compositions for regulating dendritic cells” (priority 2006, published 2008).

This test has as its system Lewis Lung Carcinoma cells (LLC) transfected with OVA and MUC1. In words: Staurosporine-induced apoptosis of transfected LLCs (PI / annexin V-FITC flow cytometry). The class given is cell-based. The conditions noted are these: transfected LLCs treated with Staurosporine vs untreated; FIG. 2. The text has this:
Transfected LLCs were either left untreated (plot 22) or treated (plot 24) with Staurosporine, which induces apoptosis. Cells from both groups were stained with propidium iodide (PI) and annexin V-FITC and analyzed by flow cytometry.

Consider `CN[C@@H]1C[C@H]2O[C@@](C)([C@@H]1OC)n1c3ccccc3c3c4c(c5c6ccccc6n2c5c31)C(=O)NC4` [Staurosporine], for which the “induction of apoptosis (annexin V-FITC positive cells)” value is recorded as “able to induce apoptosis”.
